Consider one compound from patent publication US10172884B2, “Dialysis solutions comprising organic esters of phosphoric acid” (Fresenius Medical Care Deutschland GmbH, priority 2015, dated 2019).

The nature of the data set: modified rapid controlled precipitation method (controlled degassing of CO2 until precipitation). In kind it is physicochemical. From the text:
The “Rapid-Controlled Precipitation Method” or the “Critical pH Method” can be used for determining the stability of the dialysis solution such as is described in F. Hui et al: Journal European of Water Quality (Journal European d'Hydrologie) T.33 Fasc. 1 (2002).
The results described within the framework of this disclosure were obtained by a modified rapid controlled precipitation method. The experiment setup comprises six 3-neck flasks (Carousel-6 from Radleys) which are open toward the top to ensure a uniform degassing of CO2 from the solution. Furthermore, this setup allows an in-line measurement of e.g. the pH and the conductivity as well as the simultaneous heating of the flasks.
The basic principle of the method used comprises the pH of the mixed solution or of the dialysis solution being slowly raised by controlled degassing of CO2 until the dialysis solution reaches a metastable state and ultimately precipitates.
A pH measurement, a particle count or a turbidity measurement can be used, for example, as methods for detecting the precipitation. […] The measured curves which can be obtained using these methods are compared in FIG. 3. […]
The pHmax and the precipitation products of the different solutions are compiled in Table 4 shown in the following. The values were all determined at 40° C. using the “rapid degassing” method. […]

Take `O=P(O)(O)OCC(O)CO` (centres unmarked) [glycerol orthophosphate]: the Precipitation product result (40° C., rapid degassing method) is listed as “no phosphates low in solubility are formed”. The “stability of the solution (pHmax and tG values)” value (T=40° C., result in words, FIGS. 10, 12, 13, 15) was “almost the same stabilizing effect as the addition of 0.1 mmol/L orthophosphate”.
